# Target: T1, VEGFR2 (KDR) (Homo sapiens, UniProt P35968)
# T1 construct: made in house; host or cells: Sf9 cells (Spodoptera frugiperda), baculovirus (Bac-to-Bac)
# Experiment: In Vitro Receptor Tyrosine Kinase Assay (VEGF Receptor KDR)
# Assay type: biochemical
# Details: recombinant GST-VEGFR2 806-1356, DELFIA assay, ATP 0.6 uM, enzyme 5 nM; read-out: VEGFR_IC50_UM
# Description: In Vitro Receptor Tyrosine Kinase Assay (VEGF Receptor KDR)
# This test measures the ability of compounds to inhibit the enzymatic activity of recombinant human VEGF receptor enzymatic activity.
# A 1.6-kb cDNA corresponding to the catalytic domain of VEGFR2 (KDR) (Genbank accession number AF035121 amino acid 806 to 1356) is cloned into the Pst I site of the pDEST20 Gateway vector (Invitrogen) for the production of a GST-tagged version of that enzyme. This construct is used to generate recombinant baculovirus using the Bac-to-Bac™ system according to the manufacturer's instructions (Invitrogen).
# The GST-VEGFR2806-1356 protein is expressed in Sf9 cells (Spodoptera frugiperda) upon infection with recombinant baculovirus construct. Briefly, Sf9 cells grown in suspension and maintained in serum-free medium (Sf900 II supplemented with gentamycin) at a cell density of about 2×10^6 cells/ml are infected with the above-mentioned viruses at a multiplicity of infection (MOI) of 0.1 during 72 hours at 27° C. with agitation at 120 rpm on a rotary shaker. Infected cells are harvested by centrifugation at 398 g for 15 min. Cell pellets are frozen at […] until purification is performed.
# All steps described in cell extraction and purification are performed at 4° C. Frozen Sf9 cell pellets infected with the GST-VEGFR2806-1356 recombinant baculovirus are thawed and gently resuspended in Buffer A (PBS pH 7.3 supplemented with 1 μg/ml pepstatin, 2 μg/ml Aprotinin and leupeptin, 50 μg/ml PMSF, 50 μg/ml TLCK and 10 μM E64 and 0.5 mM DTT) using 3 ml of buffer per gram of cells. Suspension is Dounce homogenized and 1% Triton X-100 is added to the homogenate after which it is centrifuged at 22500 g, 30 min., 4° C. The supernatant (cell extract) is used as starting material for purification of GST-VEGFR2806-1356.
# The supernatant is loaded onto a GST-agarose column (Sigma) equilibrated with PBS pH 7.3. Following a four column volume (CV) wash with PBS pH 7.3+1% Triton X-100 and 4 CV wash with buffer B (50 mM Tris pH 8.0, 20% glycerol and 100 mM NaCl), bound proteins are step eluted with 5 CV of buffer B supplemented with 5 mM DTT and 15 mM glutathion. GST-VEGFR2806-1356 enriched fractions from this chromatography step are pooled based on U.V. trace i.e. fractions with high O.D.280. Final GST-VEGFR2806-1356 protein preparations concentrations are about 0.7 mg/ml with purity approximating 70%. Purified GST-VEGFR2806-1356 protein stocks are aliquoted and frozen at −80° C. prior to use in enzymatic assay.
# Inhibition of VEGFR/KDR is measured in a DELFIA™ assay (Perkin Elmer). The substrate poly(Glu4,Tyr) is immobilized onto black high-binding polystyrene 96-well plates. The coated plates are washed and stored at 4° C. During the assay, the enzyme is pre-incubated with inhibitor and Mg-ATP on ice in polypropylene 96-well plates for 4 minutes, and then transferred to the coated plates. The subsequent kinase reaction takes place at 30° C. for 10-minutes. ATP concentrations in the assay are 0.6 uM for VEGFR/KDR (2× the Km). Enzyme concentration is 5 nM. After incubation, the kinase reactions are quenched with EDTA and the plates are washed. Phosphorylated product is detected by incubation with Europium-labeled anti-phosphotyrosine MoAb. After washing the plates, bound MoAb is detected by time-resolved fluorescence in a Gemini SpectraMax reader (Molecular Devices). Compounds are evaluated over a range of concentrations, and IC50 values (concentration of compounds giving 50% inhibition of enzymatic activity) are determined.
# T1 sequence (P35968 806-1356): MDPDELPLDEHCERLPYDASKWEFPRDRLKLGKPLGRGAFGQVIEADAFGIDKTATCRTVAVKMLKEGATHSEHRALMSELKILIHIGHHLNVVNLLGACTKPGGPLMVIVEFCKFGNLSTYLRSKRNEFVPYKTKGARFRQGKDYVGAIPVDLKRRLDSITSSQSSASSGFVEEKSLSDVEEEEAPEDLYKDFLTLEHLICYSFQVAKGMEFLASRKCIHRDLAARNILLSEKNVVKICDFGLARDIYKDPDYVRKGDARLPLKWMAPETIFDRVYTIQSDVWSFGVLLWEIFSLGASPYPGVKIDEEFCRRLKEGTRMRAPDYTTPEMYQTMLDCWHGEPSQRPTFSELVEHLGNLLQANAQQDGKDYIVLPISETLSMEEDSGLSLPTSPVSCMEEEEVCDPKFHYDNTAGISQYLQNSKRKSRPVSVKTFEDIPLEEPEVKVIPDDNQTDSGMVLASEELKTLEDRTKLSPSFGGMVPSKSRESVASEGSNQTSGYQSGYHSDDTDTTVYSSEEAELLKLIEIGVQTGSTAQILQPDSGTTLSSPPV
row,IC50 [nM],Compound
1,975,"CN1CCN(Cc2ccc(-c3cc4nccc(Oc5ccc(NC(=O)NC6CN(C)C6)cc5F)c4s3)nc2)CC1 [Compound 19, 1-(3-Fluoro-4-(2-(5-((4-methylpiperazin-1-yl)methyl)pyridin-2-yl)thieno[3,2-b]pyridin-7-yloxy)phenyl)-3-(1-methylazetidin-3-yl)urea]"
2,280,"CC(=O)N1CC(NC(=O)Nc2ccc(Oc3ccnc4cc(-c5ccc(CN6CCC(NC(=O)OC(C)(C)C)CC6)cn5)sc34)c(F)c2)C1 [Compound 40, tert-Butyl 1-((6-(7-(4-(3-(1-acetylazetidin-3-yl)ureido)-2-fluorophenoxy)thieno[3,2-b]pyridin-2-yl)pyridin-3-yl)methyl)piperidin-4-ylcarbamate]"
3,78,"CC(=O)N1CC(NC(=O)Nc2ccc(Oc3ccnc4cc(-c5ccc(CN6CCC(N)CC6)cn5)sc34)c(F)c2)C1 [Compound 41, 1-(1-Acetylazetidin-3-yl)-3-(4-(2-(5-((4-aminopiperidin-1-yl)methyl)pyridin-2-yl)thieno[3,2-b]pyridin-7-yloxy)-3-fluorophenyl)urea]"
4,61,"CC(=O)N1CC(NC(=O)Nc2ccc(Oc3ccnc4cc(-c5ccc(CN6CCC(NC(=O)CO)CC6)cn5)sc34)c(F)c2)C1 [Compound 43, N-(1-((6-(7-(4-(3-(1-Acetylazetidin-3-yl)ureido)-2-fluorophenox)thieno[3,2-b]pyridin-2-yl)pyridin-3-yl)methyl)piperidin-4-yl)-2-hydroxyacetamide]"
5,157,CCNC(=O)NC1CCN(Cc2ccc(-c3cc4nccc(Oc5ccc(NC(=O)NC6CN(C(C)=O)C6)cc5F)c4s3)nc2)CC1 [Compound 44]
6,70,CNC1CCN(Cc2ccc(-c3cc4nccc(Oc5ccc(NC(=O)NC6CN(C(C)=O)C6)cc5F)c4s3)nc2)CC1 [Compound 45]
7,137,CC(=O)N1CC(NC(=O)Nc2ccc(Oc3ccnc4cc(-c5ccc(CN6CC(NC(=O)OC(C)(C)C)C6)cn5)sc34)c(F)c2)C1 [Compound 46-A]
8,130,CC(=O)N1CC(NC(=O)Nc2ccc(Oc3ccnc4cc(-c5ccc(CN6CC(N)C6)cn5)sc34)c(F)c2)C1 [Compound 46]
9,68,CC(=O)N1CC(NC(=O)Nc2ccc(Oc3ccnc4cc(-c5ccc(CN6CCN(C(=O)CO)CC6)cn5)sc34)c(F)c2)C1 [Compound 47-A]
10,32,CC(=O)N1CC(NC(=O)Nc2ccc(Oc3ccnc4cc(-c5ccc(CN6CCC(N(C)C(=O)CO)CC6)cn5)sc34)c(F)c2)C1 [Compound 47]
11,62,CC(=O)N1CC(NC(=O)Nc2ccc(Oc3ccnc4cc(-c5ccc(CN6CC(NC(=O)CO)C6)cn5)sc34)c(F)c2)C1 [Compound 48]
12,35,"CN1CCN(Cc2ccc(-c3cc4nccc(Oc5ccc(NC(=O)NC6CN(C(=O)OC(C)(C)C)C6)cc5F)c4s3)nc2)CC1 [Compound 50, tert-Butyl 3-(3-(3-fluoro-4-(2-(5-((4-methylpiperazin-1-yl)methyl)pyridin-2-yl)thieno[3,2-b]pyridin-7-yloxy)phenyl)ureido)azetidine-1-carboxylate]"
13,100,CC(=O)N1CC(NC(=O)Nc2ccc(Oc3ccnc4cc(-c5ccc(CN6CCN(C)CC6)cn5)sc34)c(F)c2)C1 [Compound 51]
14,58,CN1CCN(Cc2ccc(-c3cc4nccc(Oc5ccc(NC(=O)NC6CN(C(=O)Cc7ccccc7)C6)cc5F)c4s3)nc2)CC1 [Compound 53]
15,36,CN1CCN(Cc2ccc(-c3cc4nccc(Oc5ccc(NC(=O)NC6CN(S(C)(=O)=O)C6)cc5F)c4s3)nc2)CC1 [Compound 54]
16,10,Cc1ccc(S(=O)(=O)N2CC(NC(=O)Nc3ccc(Oc4ccnc5cc(-c6ccc(CN7CCN(C)CC7)cn6)sc45)c(F)c3)C2)cc1 [Compound 55]
17,56,"O=C(CO)N1CCN(Cc2ccc(-c3cc4nccc(Oc5ccc(Nc6nc7cc(Cl)ccc7[nH]6)cc5F)c4s3)nc2)CC1 [Compound 61, 1-(4-((6-(7-(4-(5-Chloro-1H-benzo[d]imidazol-2-ylamino)-2-fluorophenoxy)thieno[3,2-b]pyridin-2-yl)pyridin-3-yl)methyl)piperazin-1-yl)-2-hydroxyethanone]"
18,44,"CN1CCN(Cc2ccc(-c3cc4nccc(Oc5ccc(Nc6nc7cc(Cl)ccc7[nH]6)cc5F)c4s3)nc2)CC1 [Compound 62, 5-Chloro-N-(3-fluoro-4-(2-(5-((4-methylpiperazin-1-yl)methyl)pyridin-2-yl)thieno[3,2-b]pyridin-7-yloxy)phenyl)-1H-benzo[d]imidazol-2-amine]"
19,268,"COCCNCc1ccc(-c2cc3nccc(Oc4ccc(Nc5nc6cc(Cl)ccc6[nH]5)cc4F)c3s2)nc1 [Compound 63, 5-Chloro-N-(3-fluoro-4-(2-(5-((2-methoxyethylamino)methyl)pyridin-2-yl)thieno[3,2-b]pyridin-7-yloxy)phenyl)-1H-benzo[d]imidazol-2-amine]"
20,23,"COCCN(Cc1ccc(-c2cc3nccc(Oc4ccc(Nc5nc6cc(Cl)ccc6[nH]5)cc4F)c3s2)nc1)C(=O)CO [Compound 65, N-((6-(7-(4-(5-Chloro-1H-benzo[d]imidazol-2-ylamino)-2-fluorophenoxy)thieno[3,2-b]pyridin-2-yl)pyridin-3-yl)methyl)-2-hydroxy-N-(2-methoxyethyl)acetamide]"
21,584,"CCNC(=O)N(CCOC)Cc1ccc(-c2cc3nccc(Oc4ccc(NC(=O)NC5CN(C(=O)NCC)C5)cc4F)c3s2)nc1 [Compound 69, N-Ethyl-3-(3-(4-(2-(5-((3-ethyl-1-(2-methoxyethyl)ureido)methyl)pyridin-2-yl)thieno[3,2-b]pyridin-7-yloxy)-3-fluorophenyl)ureido)azetidine-1-carboxamide]"
22,75,"COCCN(Cc1ccc(-c2cc3nccc(Oc4ccc(NC(=O)NC5CN(C(C)=O)C5)cc4F)c3s2)nc1)C(C)=O [Compound 70, N-((6-(7-(4-(3-(1-Acetylazetidin-3-yl)ureido)-2-fluorophenoxy)thieno[3,2-b]pyridin-2-yl)pyridin-3-yl)methyl)-N-(2-methoxyethyl)acetamide]"
23,523,"CCOC(=O)C1CCCN(Cc2ccc(-c3cc4nccc(Oc5ccc(NC(=O)NC6COC6)cc5F)c4s3)nc2)C1 (stereo not shown) [Compound 73, Ethyl 1-((6-(7-(2-fluoro-4-(3-oxetan-3-ylureido)phenoxy)thieno[3,2-b]pyridin-2-yl)pyridin-3-yl)methyl)piperidine-3-carboxylate]"
24,42,"O=C(Nc1ccc(Oc2ccnc3cc(-c4ccc(CN5CCN(C(=O)CO)CC5)cn4)sc23)c(F)c1)NC1COC1 [Compound 88, 1-(3-Fluoro-4-(2-(5-((4-(2-hydroxyacetyl)piperazin-1-yl)methyl)pyridin-2-yl)thieno[3,2-b]pyridin-7-yloxy)phenyl)-3-(oxetan-3-yl)urea]"
25,9,"O=C(Nc1ccc(Oc2ccnc3cc(-c4ccc(CN5CCCC5=O)cn4)sc23)c(F)c1)NC1COC1 [Compound 93, 1-(3-Fluoro-4-(2-(5-((2-oxopyrrolidin-1-yl)methyl)pyridin-2-yl)thieno[3,2-b]pyridin-7-yloxy)phenyl)-3-(oxetan-3-yl)urea]"
26,197,COCCN(Cc1ccc(-c2cc3nccc(Oc4ccc(NC(=O)NC5COC5)cc4F)c3s2)nc1)C(=O)OC(C)(C)C [Compound 104]
27,25,O=C(Nc1ccc(Oc2ccnc3cc(-c4ccc(CN5CCOC5=O)cn4)sc23)c(F)c1)NC1COC1 [Compound 105]

row,Compound,IC50 [nM]
1,"COCCN(Cc1ccc(-c2cc3nccc(Oc4ccc(NC(=O)NC5CN(C(=O)OC(C)(C)C)C5)cc4F)c3s2)nc1)C(=O)OC(C)(C)C [Compound 67, tert-Butyl 3-(3-(4-(2-(5-((tert-butoxycarbonyl(2-methoxyethyl)amino)methyl)pyridin-2-yl)thieno[3,2-b]pyridin-7-yloxy)-3-fluorophenyl)ureido)azetidine-1-carboxylate]",57
